The text below walks through data of EP2348038A1, “Method for determining the activity of transglutaminase factor XIIIa” (PHILIPPS-UNIVERSITÄT MARBURG, priority 2010, dated 2011).

SMILES strings stand for the structures. Peptide text beside a SMILES is read from it. * marks the point of attachment. pNA = O=[N+]([O-])c1ccc(N*)cc1; Cbz = O=C(OCc1ccccc1)*

What all share (type): biochemical
The test system of one assay is FXIIIa. The assay is described as follows: Initial cleavage tests of Glu(pNA)/Glu(AMC) derivatives with FXIIIa (background section). As to conditions: release of pNA or AMC; no conditions given. An excerpt: Nach derzeitigem Wissen existieren neben FXIII bzw. FXllla im Körper derzeit noch 8 weitere Transglutaminasen, dazu zählen TG1-TG7 sowie das Protein epb42, dass allerdings katalytisch unwirksam ist (Wodzinska, Mini Rev. in Med. Chem. 5 (2005) 279-292). Als erste Transglutaminase wurde das inzwischen als TG2 bezeichnete Enzym entdeckt. Dessen Aktivität lässt sich sehr einfach durch UV/VIS-spektroskopische oder fluorimetrische Messungen unter Verwendung simpler Aminosäurederiate nachweisen, beispielsweise durch Abspaltung von p-Nitroanlin aus H-Glu(pNA)-OH oder durch Abspaltung von Aminomethylcoumarin aus H-Glu(AMC)-OH (Smith et al., Anal. Biochem. 100 (1979) 136-139). […] Bisher wurden auch noch keine Peptidderivate beschrieben, die einen Glu(pNA) oder Glu(AMC)-Rest besitzen und gleichzeitig mit ausreichender Effektivität von FXllla unter Freisetzung von pNA oder AMC umgesetzt werden.

A further assay addresses T1, FXllla (Homo sapiens, UniProt P00488).
T1 sequence (P00488 39-732 limits assumed): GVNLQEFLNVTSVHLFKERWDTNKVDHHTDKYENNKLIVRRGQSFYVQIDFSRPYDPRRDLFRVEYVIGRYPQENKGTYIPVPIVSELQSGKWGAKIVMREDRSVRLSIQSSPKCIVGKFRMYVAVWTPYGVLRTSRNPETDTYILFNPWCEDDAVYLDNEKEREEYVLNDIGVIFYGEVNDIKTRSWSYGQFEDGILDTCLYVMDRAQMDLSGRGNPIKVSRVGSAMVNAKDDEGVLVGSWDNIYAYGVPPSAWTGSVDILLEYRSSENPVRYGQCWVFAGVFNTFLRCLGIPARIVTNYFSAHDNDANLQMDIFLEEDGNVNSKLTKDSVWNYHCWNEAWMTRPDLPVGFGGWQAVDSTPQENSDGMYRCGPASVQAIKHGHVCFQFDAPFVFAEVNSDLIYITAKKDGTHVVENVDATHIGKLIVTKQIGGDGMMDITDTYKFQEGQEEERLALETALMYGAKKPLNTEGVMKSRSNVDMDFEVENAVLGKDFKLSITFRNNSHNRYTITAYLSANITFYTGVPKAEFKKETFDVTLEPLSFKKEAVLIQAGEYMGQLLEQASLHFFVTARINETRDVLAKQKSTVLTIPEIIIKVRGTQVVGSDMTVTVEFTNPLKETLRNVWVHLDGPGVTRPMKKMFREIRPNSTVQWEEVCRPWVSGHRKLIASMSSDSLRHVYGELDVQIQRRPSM
The assay is described as follows: Initial experiments: cleavage by FXIIIa of Glu(pNA) peptides derived from the Berichrom substrate sequence.

The target in assay [1] is T2, Faktor XIIIa (Homo sapiens, UniProt P00488).
T2 construct: Aktivierung des Zymogens FXIII zu Faktor XIIIa; purchased Aventis Behring Fibrogammin HS
T2 sequence (P00488 39-732 limits assumed): T1 sequence (P00488 39-732 limits assumed)
Nature of the assay: Cleavage of pNA substrates by activated factor XIIIa, absorbance at 405 nm (Michaelis-Menten kinetics and pre-test). The note with it: for Substratspaltung (Vortest): pre-test at constant substrate concentration, 405 nm; for Substratspaltung (Vortest) / Vmax: 37 °C; for Vmax: change of absorbance at 405 nm per s, enzyme ca. 1,25 Einheiten/ml. The protocol:
250 Einheiten lyophilisiertes Fibrogammin HS (Aventis Behring) wurden in 4 ml Wasser gelöst, als 100 µl Portionen aliquotiert und bei -80 °C gelagert. 100 µl dieser Lösung enthalten 6,25 Einheiten FXIII.
100 µl des aliqotierten Fibrogammins (entspricht 6,25 Einheiten) wurden mit 500 µl TBS-Puffer (50 mM Tris-HCl, pH 7,5 in 0,9% (w/v) NaCl), 360 µl einer 0.9 % NaCl-Lösung, 10 µl einer 1 M CaCl2-Lösung und 20 µl einer Thrombinlösung (Rinderthrombin: 14,2 U in 20 µl) versetzt. Der Ansatz wurde 20 min bei 37 °C inkubiert, danach wurden 10 µl einer Lösung mit rekombinantem Hirudin zugesetzt (r-Hirudin: HBW 023 mit 13442 IU mg^-1, Stammlösung des r-Hirudin = 1 mg/ml). Dieser Aktivierungsansatz besitzt ein Gesamtvolumen von 1 ml, der aktivierte Faktor Xllla wurde bei 37 °C aufbewahrt und für die folgenden kinetischen Messungen verwendet.
Die Messungen wurden bei 405 nm und 37 °C mit einem Microplate Reader der Firma Labsystems (iEMS Reader MF) mit folgendem Messansatz durchgeführt: • 150 µl TBS-Puffer (siehe oben, der Puffer kann gegebenenfalls auch eine Aminkomponente enthalten, beispielsweise H-Gly-Ethylester oder H-Gly-Gly-Ethylester oder ein anderes Amin, falls vorhanden ist die finale Konzentration des Amins im Messansatz 2,5 mM oder höher) • 50 µl Substratlösung • 50 µl Enzymlösung (im Messansatz ca. 1,25 Einheiten/ml)
Sämtliche Lösungen wurden vor Benutzung bei 37 °C aufbewahrt, vor Zugabe der FXllla-Lösung wurde die Mikroreadermessplatte nochmals 5 min bei 37 °C im Messgerät temperiert. Nach Zugabe der FXllla-Lösung wurde die Substratspaltung gestartet und die Änderung der Absorption bei 405 nm gemessen. Für einen Vortest wurde eine konstante Substratkonzentration verwendet. […] Wir haben vermutet, dass vor allem die Aminosäuren N- und C-terminal des Glu(pNA)-Restes wichtig für die Substraterkennung sind, deshalb wurde das N-terminale Glycin und das an dritter Position befindliche Serin innerhalb der Berichromsequenz durch andere Aminosäurereste ersetzt. Durch den Vortest wurde festgestellt, dass einige dieser Substrate deutlich schneller als die Derivate S1 und S2 gespalten werden. Für ausgewählte Substrate wurden die Substratkonzentrationen im Messansatz variiert und die bestimmten Umsatzgeschwindigkeiten als Funktion der Substratkonzentration entsprechend der Michaelis-Menten-Gleichung v=Vmax·[S]/(Km+[S]) aufgetragen und somit die kinetischen Konstanten Km und Vmax bestimmt, wobei Vmax in der Einheit Absorptionsänderung bei 405 nm/s erhalten wurde. Dies ist in Fig. 1 und Fig. 2 gezeigt.

For assay [2], the target named is T2, Faktor XIIIa. The assay is described as follows: Cleavage of AMC substrates by activated factor XIIIa, fluorescence plate reader (Michaelis-Menten kinetics). The note with it: λEX = 380 nm, λEm = 460 nm, room temperature, enzyme ca. 0,893 Einheiten/ml. The protocol: Die Aliquotierung des Zymogens Faktor XIII und Aktivierung des Zymogens FXIII zu Faktor XIIIa erfolgten analog der in Beispiel 3 beschriebenen Prozedur.
Sämtliche Lösungen wurden bei Raumtemperatur aufbewahrt. Die Bestimmung der Spaltung der AMC-Substrate durch FXllla wurde mit einem Fluoreszenz-Plattenreader Safire^2 der Firma Tecan (λEX = 380 nm, λEm = 460 nm) bei Raumtemperatur durchgeführt. • 100 µl TBS-Puffer (siehe oben, der Puffer kann gegebenenfalls auch eine Aminkomponente enthalten, beispielsweise H-Gly-Ethylester oder H-Gly-Gly-Ethylester oder ein anderes Amin) • 50 µl Substratlösung • 25 µl Enzymlösung (im Messansatz ca. 0,893 Einheiten/ml)
Die Michaelis-Menten-Auftragung für die AMC-enthaltenden Substrate ist in Fig. 3 gezeigt.

Consider `N[C@@H](CCC(=O)Nc1ccc([N+](=O)[O-])cc1)C(=O)O` [H-Glu(pNA)-OH], for which, in the assay on FXIIIa, the “Spaltung durch FXIIIa” value is “nicht gespalten”.
For the compound `CC[C@H](C)[C@H](NC(=O)[C@@H](NC(=O)[C@H](CCCCN)NC(=O)[C@H](CO)NC(=O)[C@H](CCC(=O)Nc1ccc([N+](=O)[O-])cc1)NC(C)=O)C(C)C)C(=O)NCC(N)=O` [Ac-Glu(pNA)-Ser-Lys-Val-Ile-Gly-NH2] (Ac-E(pNA)SKVIG-NH2), the “Spaltung durch FXllla” value on FXllla is recorded as “fast gar nicht oder nur sehr langsam gepalten”.
Take `CC[C@H](C)[C@H](NC(=O)[C@@H](NC(=O)[C@H](CCCCN)NC(=O)[C@H](CO)NC(=O)[C@H](CCC(=O)Nc1ccc([N+](=O)[O-])cc1)NC(=O)CNC(=O)[C@@H]1CCCN1C(=O)CNC(=O)[C@@H](N)CC(C)C)C(C)C)C(=O)NCC(N)=O` [H-Leu-Gly-Pro-Gly-Glu(pNA)-Ser-Lys-Val-Ile-Gly-NH2] (H-LGPGE(pNA)SKVIG-NH2): the “Spaltung durch FXllla” value on FXllla is on record as “nur sehr langsam von FXllla gepalten”.
Consider `CC(C)C[C@H](NC(=O)[C@@H]1CCCN1C(=O)[C@H](CO)NC(=O)[C@@H](NC(=O)[C@H](CC(N)=O)NC(=O)[C@H](CCC(=O)O)NC(=O)[C@H](CCC(=O)Nc1ccc([N+](=O)[O-])cc1)NC(=O)[C@@H](N)CC(N)=O)C(C)C)C(N)=O` [Substrat S1, H-Asn-Glu(pNA)-Glu-Asn-Val-Ser-Pro-Leu-NH2] (H-NE(pNA)ENVSPL-NH2), for which the “Substratspaltung (Vortest)” value at Faktor XIIIa [1] is listed as “praktisch kaum gespalten”.
Turning to `CC[C@H](C)[C@H](NC(=O)[C@@H](NC(=O)[C@H](CCCCN)NC(=O)[C@H](CO)NC(=O)[C@H](CCC(=O)Nc1ccc([N+](=O)[O-])cc1)NC(=O)CNC(=O)[C@@H]1CCCN1C(=O)CN)C(C)C)C(=O)NCC(N)=O` [H-Gly-Pro-Gly-Glu(pNA)-Ser-Lys-Val-Ile-Gly-NH2] (H-GPGE(pNA)SKVIG-NH2), the “Spaltung durch FXllla” value at FXllla was “fast gar nicht oder nur sehr langsam gepalten”.
For `CC[C@H](C)[C@H](NC(=O)[C@@H](NC(=O)[C@H](CCCNC(=N)N)NC(=O)[C@@H](NC(=O)[C@H](CCC(=O)Nc1ccc([N+](=O)[O-])cc1)NC(=O)[C@@H](N)Cc1ccc(O)cc1)C(C)C)C(C)C)C(=O)NCC(N)=O` [Substrat S16, H-Tyr-Glu(pNA)-Val-Arg-Val-Ile-Gly-NH2] (H-YE(pNA)VRVIG-NH2), the “Eignung als Substrat” value on Faktor XIIIa [1] (pNA substrates, see Fig. 2) was “geeignete Substrate”. Further, the Vmax on Faktor XIIIa [1] (pNA substrates) is listed as 0,8 × 10^-4 dOD/s.
`CC[C@H](C)[C@H](NC(=O)[C@@H](NC(=O)[C@H](CCCCN)NC(=O)[C@@H](NC(=O)[C@H](CCC(=O)Nc1ccc([N+](=O)[O-])cc1)NC(=O)[C@@H](N)Cc1ccc(O)cc1)C(C)C)C(C)C)C(=O)NCC(N)=O` [Substrat S10, H-Tyr-Glu(pNA)-Val-Lys-Val-Ile-Gly-NH2] (H-YE(pNA)VKVIG-NH2): on Faktor XIIIa [1] (pNA substrates), the Vmax is reported as 0,95 × 10^-4 dOD/s.
On the same count and under the same terms, in the case of `CC[C@H](C)[C@H](NC(=O)[C@@H](NC(=O)[C@H](CCCCN)NC(=O)[C@@H](NC(=O)[C@H](CCC(=O)Nc1ccc([N+](=O)[O-])cc1)NC(=O)[C@@H](N)Cc1ccc(O)cc1)C(C)C)C(C)C)C(N)=O` [Substrat S12, H-Tyr-Glu(pNA)-Val-Lys-Val-Ile-NH2] (H-YE(pNA)VKVI-NH2) it was 1.33 × 10^-4 dOD/s.
On to `CC[C@H](C)[C@H](NC(=O)[C@@H](NC(=O)[C@H](CCCCN)NC(=O)[C@H](CO)NC(=O)[C@H](CCC(=O)Nc1ccc([N+](=O)[O-])cc1)NC(=O)CNC(=O)[C@@H]1CCCN1)C(C)C)C(=O)NCC(N)=O` [H-Pro-Gly-Glu(pNA)-Ser-Lys-Val-Ile-Gly-NH2] (H-PGE(pNA)SKVIG-NH2), for which the “Spaltung durch FXllla” value at FXllla was “fast gar nicht oder nur sehr langsam gepalten”.
Same read-out and setting: then `CC[C@H](C)[C@H](NC(=O)[C@@H](NC(=O)[C@H](CCCCN)NC(=O)[C@H](CO)NC(=O)[C@@H](N)CCC(=O)Nc1ccc([N+](=O)[O-])cc1)C(C)C)C(=O)NCC(N)=O` [H-Glu(pNA)-Ser-Lys-Val-Ile-Gly-NH2] (H-E(pNA)SKVIG-NH2), with “fast gar nicht oder nur sehr langsam gepalten”.
Consider `CC[C@H](C)[C@H](NC(=O)[C@@H](NC(=O)[C@H](CCCCN)NC(=O)[C@H](CO)NC(=O)[C@H](CCC(=O)Nc1ccc([N+](=O)[O-])cc1)NC(=O)CN)C(C)C)C(=O)NCC(N)=O` [Substrat S2, H-Gly-Glu(pNA)-Ser-Lys-Val-Ile-Gly-NH2] (H-GE(pNA)SKVIG-NH2), for which the “Substratspaltung (Vortest)” value on Faktor XIIIa [1] is “nur langsam umgesetzt”.
On to `CC[C@H](C)[C@H](NC(=O)[C@@H](NC(=O)[C@H](CCCCN)NC(=O)[C@@H](NC(=O)[C@H](CCC(=O)Nc1ccc([N+](=O)[O-])cc1)NC(=O)[C@@H](N)CCCCN)C(C)C)C(C)C)C(=O)NCC(N)=O` [Substrat S18, H-Lys-Glu(pNA)-Val-Lys-Val-Ile-Gly-NH2] (H-KE(pNA)VKVIG-NH2), for which the Vmax at Faktor XIIIa [2] was 9,61 dRFU/s.
For `Cc1cc(=O)oc2cc(NC(=O)CC[C@H](N)C(=O)O)ccc12` [H-Glu(AMC)-OH], in the assay on FXIIIa, the “Spaltung durch FXIIIa” value was “nicht gespalten”.
Take `CC[C@H](C)[C@H](NC(=O)[C@@H](NC(=O)[C@H](CCCCN)NC(=O)[C@H](CCCCNC(=O)OCc1ccccc1)NC(=O)[C@H](CCC(=O)Nc1ccc([N+](=O)[O-])cc1)NC(=O)[C@@H](N)Cc1c[nH]cn1)C(C)C)C(=O)NCC(N)=O` [Substrat S19, H-His-Glu(pNA)-Lys(Z)-Lys-Val-Ile-Gly-NH2] (H-HE(pNA)K(Cbz)KVIG-NH2): the Vmax at Faktor XIIIa [2] is recorded as 11,99 dRFU/s.
